{"source": "patent US5587402A", "about": "“Regression of mammalian leukemia cell tumors” (priority 1995, dated 1996)", "key": {"[1]": {"tested_on": "NIH3T3 cells", "assay": "Inhibition of NIH3T3 cell growth", "type": "cell-based, mouse", "details": "FIG. 3", "protocol": "(§1) NIH3T3 (mouse embryo) cells were obtained from the American Type Culture Collection and were grown in Dulbecco's modified Eagle's medium supplemented with 10% calf serum. M600B immortalized human mammary epithelial cells (Stampfer, M. R., 1985, J. Tissue Culture Methods 9: 107-115) were obtained from Dr. Martha Stampfer and were grown in supplemented HCDB 170 medium (Hammond, et al. (1984) Proc. Natl. Acad. Sci U.S.A. 81: 5435-5439), as described previously (Stampfer, et al. (1985) Proc. Natl. Acad. Sci U.S.A. 82: 2394-2398; Eldridge, et al. (1989) Cancer Res. 49: 4326-4331).\n(§2) All cells were maintained in 100-mm dishes at 37° C. in a humidified 5% CO2 atmosphere. Viable cells were distinguished from nonviable cells by counting azure II/methylene blue-stained colonies 10 days after the cells were plated at a density of 100 cells per dish. Trypan blue exclusion was measured by incubating cells for 1 minute with one drop of trypan blue per 10 ml of cells. Viable (colorless) and nonviable (blue) cells were then counted on a hemocytometer.\n(§3) Additionally, growth of HT29 (human colon adenocarcinoma) cells was inhibited by 80% by 1 mM perillyl alcohol."}, "[2]": {"tested_on": "M600B cells", "assay": "Inhibition of M600B cell growth", "type": "cell-based, human", "details": "FIG. 4", "protocol": "as §1, §2, §3"}, "[3]": {"tested_on": "isoprenylation of 21-26 kDa proteins in M600B cells", "assay": "Protein isoprenylation in M600B human mammary epithelial cells", "type": "cell-based"}, "[4]": {"tested_on": "nontransformed FDC-P1 cells", "assay": "Proliferation of nontransformed FDC-P1 myeloid cells", "type": "cell-based, murine", "details": "up to 800 μM; FIG. 9A", "protocol": "(§4) (The p210 bcr/abl oncogene is carried on a helper-free retrovirus referred to as \"p210.\") FDC-P1 myeloid cells are an immature cell line from myeloid lineage derived from mouse bone marrow (Dexter, TM, J. Exp. Med. 152: 1036-1047, 1980)."}, "[5]": {"details": "cited from earlier work"}, "[6]": {"tested_on": "DMBA-induced rat mammary carcinomas", "assay": "Pair-feeding study: regression and inhibition of DMBA-induced mammary carcinomas in rats", "type": "in vivo, Wistar-Furth female rats", "protocol": "We used Wistar-Furth female rats for in vivo studies. Wistar-Furth female rats were obtained from Harlan Sprague-Dawley, Inc., (Madison, Wis.). […] Rates were provided Teklad Lab blox chow and acidified water ad libitum.\nThe DMBA was dissolved in a stock solution of 20 mg DMBA/ml sesame oil, heated and allowed to cool to room temperature before administration. DMBA (Eastman Kodak, Rochester, N.Y.) was given as a single gastric intubation of 50 mg DMBA/kg rat body weight.\nIn the pair-feeding study, a group of 70 mammals was treated with DMBA. Beginning four weeks post-carcinogen administration, mammals were weighed and palpated weekly.\nFresh diets were make every 7-10 days. All mammals were provided fresh diet daily to minimize evaporation of the monoterpenes.\nIn a pair-feeding study, all palpable mammary tumors were classified as either \"primary\" tumors (i.e., the first tumor(s) palpated with a minimum diameter of 3 mm) or \"secondary\" tumors (i.e. a palpable tumor arising after initial diet assignment). […] All carcinogen-exposed mammals not bearing a first palpable tumor by week 15 post-carcinogen were removed from the experiment. Complete regression of a tumor was defined as non-palpability for a minimum of three consecutive weeks. All mammals in the pair-feeding study were followed for a minimum of 10 weeks post-diet assignment for tumor growth or regression at primary tumor sites and all other mammary glands. The rats were necropsied if moribund. Complete necropsies were performed on all rats at the termination of the study."}, "[7]": {"tested_on": "isoprenylation of 21-26 kDa proteins in NIH3T3 (mouse embryo) cells", "assay": "Protein isoprenylation in NIH3T3 cells (21-26 kDa bands, SDS-PAGE fluorography)", "type": "cell-based", "protocol": "NIH3T3 (mouse embryo) cells were obtained from the American Type Culture Collection and were grown in Dulbecco's modified Eagle's medium supplemented with 10% calf serum. […] Because they carried a radioactive label, isoprenylated proteins were visualized by fluorography. As a control, cells were incubated without the monoterpene. […] Whole cell extracts were analyzed by SDS-PAGE on 16-cm×18-cm×0.75-mm gels by the method of Laemmli (supra). […] Gels were stained with Coomassie Brilliant Blue, equilibrated for 20 minutes in Amplify (Amersham Corp.) fluorographic reagent, dried under vacuum at 65° C., and exposed to […] Some fluorograms were analyzed further by densitometry. […] Protein content was measured by the method of Lowry, et al. […] FIG. 1 depicts the structures of these monoterpenes."}, "[8]": {"tested_on": "mammary, lung, and stomach cancers", "details": "literature; cited from earlier work"}, "[9]": {"tested_on": "p210-transformed FDC-P1 cells", "assay": "Proliferation of p210 bcr/abl-transformed FDC-P1 myeloid cells", "type": "cell-based, murine", "details": "up to 800 μM; FIG. 9A", "protocol": "as §4"}}}
{"smiles": "C=C(C)[C@@H]1CC=C(C(=O)O)CC1", "note": "[Perillic acid, reference compound]", "values": [{"measurement": "inhibition of cell growth", "setting": "[1]", "value": "significantly inhibited cell growth in a dose-dependent manner"}, {"measurement": "inhibition of cell growth", "setting": "[2]", "value": "significantly inhibited cell growth in a dose-dependent manner"}, {"measurement": "isoprenylation of 21-26 kDa proteins", "setting": "[3]; 5 mM, FIG. 2", "value": "inhibited significantly"}, {"measurement": "inhibition of isoprenylation", "setting": "[3]; all cell types examined", "value": "inhibition of isoprenylation"}]}
{"smiles": "C=C(C)[C@H]1CC=C(C)CC1", "note": "[limonene, d-Limonene]", "values": [{"measurement": "effect on proliferation", "setting": "[4]", "value": "no effect"}, {"measurement": "toxicity to humans", "setting": "[5]; at the required usage levels", "value": "not toxic to humans"}, {"measurement": "side-effects", "setting": "[5]; particularly when a large dose is required in a short period", "value": "not without some side-effects"}, {"measurement": "number of secondary tumors compared with perillyl alcohol-fed mammals", "setting": "[6]; 10% limonene diet versus 2.5% perillyl alcohol diet", "value": "higher"}, {"measurement": "Time to Regress", "setting": "[6]; 10% limonene diet, Kaplan-Meier estimate of time when 25% of tumors will have regressed, p < 0.01, pair-fed control 14.5", "value": 3.25, "unit": "wks"}, {"measurement": "Primary Tumor Regression (tumors regressed / tumors)", "setting": "[6]; 10% limonene diet, complete regression, p < 0.01 vs controls", "value": "19/28"}, {"measurement": "Primary Tumor Regression (%)", "setting": "[6]; 10% limonene diet, complete regression, pair-fed control 23%", "value": 68, "unit": "%"}, {"measurement": "Number of Secondary Tumors/Rat", "setting": "[6]; 10% limonene diet, p < 0.01, pair-fed control 1.92", "value": 1.08}, {"measurement": "Secondary Tumor Regression (tumors regressed / tumors)", "setting": "[6]; 10% limonene diet, p < 0.01, pair-fed control 9/48", "value": "17/27"}, {"measurement": "Secondary Tumor Regression (%)", "setting": "[6]; 10% limonene diet, pair-fed control 19%", "value": 63, "unit": "%"}, {"measurement": "intensity of the 21-26-kDa bands", "setting": "[7]; 0.5 mM or 5 mM, fluorography", "value": "dose-responsive decrease in intensity"}, {"measurement": "intensity of the 66-, 46-, and 17-kDa bands", "setting": "[7]; 0.5 mM or 5 mM, fluorography", "value": "not different from that of the control"}, {"measurement": "activity at 500 µM", "setting": "[7]; Mus musculus, NIH3T3, 0.5 mM, slicing and scintillation counting, as reported in Crowell et al. (own work), read-out: isoprenylation of the 21-26-kDa bands remaining, of the control", "value": "~50", "unit": "%"}, {"measurement": "activity at 5000 µM", "setting": "[7]; Mus musculus, NIH3T3, 5 mM, slicing and scintillation counting, as reported in Crowell et al. (own work), read-out: isoprenylation of the 21-26-kDa bands remaining, of the control", "value": "~25", "unit": "%"}, {"measurement": "spot at the dye front", "setting": "[7]; fluorography", "value": "reduced with maximal inhibition at 5 mM"}, {"measurement": "activity against mammary, lung, and stomach cancers", "setting": "[8]", "value": "reported to have activity against mammary"}, {"measurement": "effect on proliferation", "setting": "[9]", "value": "no effect"}, {"measurement": "intensity of the 21-26 kDa bands", "setting": "[3]; 5 mM limonene", "value": "marked decrease in the intensity of the 21-26 kDa bands"}, {"measurement": "minimal effective concentration", "setting": "[3]; Homo sapiens, Epithelial cell, dose responsive, read-out: concentration required for significant inhibition of protein isoprenylation", "value": "≥ 1000", "unit": "µM"}]}
